Measurements: patent publication US20230072421A1, “TARGETED RADIOPHARMACEUTICALS FOR THE DIAGNOSIS AND TREATMENT OF PROSTATE CANCER” (Bayer AS, priority 2019, published 2023)

Biological target: T1, PSMA-expressing LNCaP cells (Homo sapiens, UniProt Q04609)
T1 construct: PSMA-expressing LNCaP cells; endogenous in cells; host or cells: LNCaP
Experiment: Binding competition assay against 3H-PSMA-617 on LNCaP cells
Conditions: for remaining activity at 0.01 µM / remaining activity at 0.1 µM: LNCaP cells, 10 nM 3H-PSMA-617, 2 h at 37° C., triplicates; for remaining activity at 0.01 µM: competing non-radiolabeled compound 10 nM; for remaining activity at 0.1 µM: competing non-radiolabeled compound 100 nM
Procedure, shortened: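 Compounds added to LNCaP cells in growth medium, 2 h at 37 °C, 5% CO2. After two ice-cold PBS washes, cells lysed in 0.3 M NaOH and bound radioactivity measured by liquid scintillation counting.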

T1 sequence (Q04609 whole entry): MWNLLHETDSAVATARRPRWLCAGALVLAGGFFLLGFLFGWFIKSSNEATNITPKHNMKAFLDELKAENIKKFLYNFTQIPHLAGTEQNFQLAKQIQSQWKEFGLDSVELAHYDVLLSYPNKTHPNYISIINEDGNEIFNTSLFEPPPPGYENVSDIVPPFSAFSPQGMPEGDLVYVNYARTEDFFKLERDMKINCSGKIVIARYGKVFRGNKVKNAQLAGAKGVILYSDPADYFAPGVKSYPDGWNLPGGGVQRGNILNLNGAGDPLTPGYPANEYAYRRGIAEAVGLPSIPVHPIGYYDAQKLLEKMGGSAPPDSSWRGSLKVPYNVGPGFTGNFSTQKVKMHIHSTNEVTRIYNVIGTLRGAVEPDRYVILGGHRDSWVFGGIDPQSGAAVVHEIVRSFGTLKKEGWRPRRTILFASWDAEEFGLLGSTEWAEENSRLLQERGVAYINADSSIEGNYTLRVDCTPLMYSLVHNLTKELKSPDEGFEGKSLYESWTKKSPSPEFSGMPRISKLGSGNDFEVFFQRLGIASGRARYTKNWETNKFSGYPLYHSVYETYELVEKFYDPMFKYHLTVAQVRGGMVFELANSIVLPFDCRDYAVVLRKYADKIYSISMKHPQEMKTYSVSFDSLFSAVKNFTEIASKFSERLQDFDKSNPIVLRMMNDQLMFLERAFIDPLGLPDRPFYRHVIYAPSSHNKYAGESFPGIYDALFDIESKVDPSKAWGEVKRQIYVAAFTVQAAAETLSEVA

| remaining activity at 0.01 µM [%] | remaining activity at 0.1 µM [%] | competition against 3H-PSMA-617 on PSMA-expressing LNCaP cells (in words) (comparison between examples) | Structure (SMILES) |
| --- | --- | --- | --- |
| 81 | 32 | – | CNc1cc2ccccc2cc1C[C@@H](NC(=O)[C@H]1CC[C@H](CNC(=O)CN2CCN(CC(=O)O)CCN(CC(=O)O)CCN(CC(=O)O)CC2)CC1)C(=O)NCCCC[C@H](NC(=O)N[C@@H](CCC(=O)O)C(=O)O)C(=O)O [Example 39-B, (3R,10S,14S)-3-{[3-(methylamino)naphthalen-2-yl]methyl}-1,4,12-trioxo-1-[(1r,4S)-4-({2-[4,7,10-tris(carboxymethyl)-1,4,7,10-tetraazacyclododecan-1-yl]acetamido}methyl)cyclohexyl]-2,5,11,13-tetraazahexadecane-10,14,16-tricarboxylic acid] |
| 94 | 43 | – | NC1CC2(C1)CC(C(=O)N[C@@H](Cc1ccc3ccccc3c1)C(=O)NCCCC[C@H](NC(=O)N[C@@H](CCC(=O)O)C(=O)O)C(=O)O)C2 (stereo partly drawn) [Example 47-A, (3S,10S,14S)-1-(6-aminospiro[3.3]heptan-2-yl)-3-[(naphthalen-2-yl)methyl]-1,4,12-trioxo-2,5,11,13-tetraazahexadecane-10,14,16-tricarboxylic acid] |
| 82 | 61 | – | NC[C@H]1CC[C@H](C(=O)N[C@H](Cc2csc3ccc(Cl)cc23)C(=O)NCCCC[C@H](NC(=O)N[C@@H](CCC(=O)O)C(=O)O)C(=O)O)CC1 [Example 41-A, N^6—{N-[(1r,4S)-4-(aminomethyl)cyclohexane-1-carbonyl]-3-(5-chloro-1-benzothiophen-3-yl)-D-alanyl}-N^2-{[(1S)-1,3-dicarboxypropyl]carbamoyl}-L-lysine] |
| 92 | 29 | – | O=C(O)CC[C@H](NC(=O)N[C@@H](CCCCNC(=O)[C@H](Cc1cc2ccccc2cn1)NC(=O)[C@H]1CC[C@H](CNC(=O)CN2CCN(CC(=O)O)CCN(CC(=O)O)CCN(CC(=O)O)CC2)CC1)C(=O)O)C(=O)O [Example 36-B, N^6-{3-(isoquinolin-3-yl)-N-[(1r,4S)-4-({2-[4,7,10-tris(carboxymethyl)-1,4,7,10-tetraazacyclododecan-1-yl]acetamido}methyl)cyclohexane-1-carbonyl]-L-alanyl}-N^2-{[(1S)-1,3-dicarboxypropyl]carbamoyl}-L-lysine] |
| 66 | 72 | – | COc1c(C[C@@H](NC(=O)[C@H]2CC[C@H](CN)CC2)C(=O)NCCCC[C@H](NC(=O)N[C@@H](CCC(=O)O)C(=O)O)C(=O)O)ccc2ccccc12 [Example 33-A, (3R,10S,14S)-1-[(1r,4S)-4-(aminomethyl)cyclohexyl]-3-[(1-methoxynaphthalen-2-yl)methyl]-1,4,12-trioxo-2,5,11,13-tetraazahexadecane-10,14,16-tricarboxylic acid] |
| 145 | 75 | – | CNc1cc(C[C@@H](NC(=O)[C@H]2CC[C@H](CN)CC2)C(=O)NCCCC[C@H](NC(=O)N[C@@H](CCC(=O)O)C(=O)O)C(=O)O)cc2ccccc12 [Example 37-A, (3R,10S,14S)-1-[(1r,4S)-4-(aminomethyl)cyclohexyl]-3-{[4-(methylamino)naphthalen-2-yl]methyl}-1,4,12-trioxo-2,5,11,13-tetraazahexadecane-10,14,16-tricarboxylic acid] |
| 87 | 62 | – | N[C@H]1CC[C@H](CNC(=O)N[C@@H](Cc2ccc3ccccc3c2)C(=O)NCCCC[C@H](NC(=O)N[C@@H](CCC(=O)O)C(=O)O)C(=O)O)CC1 [Example 40-A, (5S,12S,16S)-1-[(1r,4S)-4-aminocyclohexyl]-5-[(naphthalen-2-yl)methyl]-3,6,14-trioxo-2,4,7,13,15-pentaazaoctadecane-12,16,18-tricarboxylic acid] |
| 50 | 9 | improved competition | NCc1ccc(C(=O)N[C@@H](Cc2ccc3ccccc3n2)C(=O)NCCCC[C@H](NC(=O)N[C@@H](CCC(=O)O)C(=O)O)C(=O)O)nc1 [Example 34-A, N^6—{N-[5-(aminomethyl)pyridine-2-carbonyl]-3-(quinolin-2-yl)-L-alanyl}-N^2-{[(1S)-1,3-dicarboxypropyl]carbamoyl}-L-lysine] |
| 140 | 106 | – | NC[C@H]1CC[C@H](C(=O)N[C@H](Cc2ccc3c(c2)CCCO3)C(=O)NCCCC[C@H](NC(=O)N[C@@H](CCC(=O)O)C(=O)O)C(=O)O)CC1 [Example 38-A, N^6—{N-[(1r,4S)-4-(aminomethyl)cyclohexane-1-carbonyl]-3-(3,4-dihydro-2H-1-benzopyran-6-yl)-D-alanyl}-N^2-{[(1S)-1,3-dicarboxypropyl]carbamoyl}-L-lysine] |
| 65 | 44 | – | NCc1ccc(C(=O)N[C@@H](Cc2ccc3ncccc3c2)C(=O)NCCCC[C@H](NC(=O)N[C@@H](CCC(=O)O)C(=O)O)C(=O)O)nc1 [Example 49-A, (3S,10S,14S)-1-[5-(aminomethyl)pyridin-2-yl]-1,4,12-trioxo-3-[(quinolin-6-yl)methyl]-2,5,11,13-tetraazahexadecane-10,14,16-tricarboxylic acid] |

The remaining lines, values behind:

| Structure (SMILES) | remaining activity at 0.01 µM [%] | remaining activity at 0.1 µM [%] | competition against 3H-PSMA-617 on PSMA-expressing LNCaP cells (in words) (comparison between examples) |
| --- | --- | --- | --- |
| O=C(O)CC[C@H](NC(=O)N[C@@H](CCCCNC(=O)[C@H](Cc1ccc2ccccc2c1)NC(=O)[C@H]1CC[C@H](CNC(=O)CN2CCN(CC(=O)O)CCN(CC(=O)O)CCN(CC(=O)O)CC2)CC1)C(=O)O)C(=O)O [Example 1-B, (3S,10S,14S)-3-[(naphthalen-2-yl)methyl]-1,4,12-trioxo-1-[(1r,4S)-4-({2-[4,7,10-tris(carboxymethyl)-1,4,7,10-tetraazacyclododecan-1-yl]acetamido}methyl)cyclohexyl]-2,5,11,13-tetraazahexadecane-10,14,16-tricarboxylic acid, reference compound] | 66 | 17 | – |
| O=C(O)CC[C@H](NC(=O)N[C@@H](CCCCNC(=O)[C@H](Cc1ccc2ccccc2c1)NC(=O)NCC1CCNCC1)C(=O)O)C(=O)O [Example 30-A, (5S,12S,16S)-5-[(naphthalen-2-yl)methyl]-3,6,14-trioxo-1-(piperidin-4-yl)-2,4,7,13,15-pentaazaoctadecane-12,16,18-tricarboxylic acid] | 136 | 96 | – |
| NC[C@H]1CC[C@H](C(=O)N[C@@H](CCCc2ccccc2)C(=O)NCCCC[C@H](NC(=O)N[C@@H](CCC(=O)O)C(=O)O)C(=O)O)CC1 [Example 3-A, N^6—{N-[(1r,4S)-4-(aminomethyl)cyclohexane-1-carbonyl]-5-phenyl-L-norvalyl}-N^2-{[(1S)-1,3-dicarboxypropyl]carbamoyl}-L-lysine] | 100 | 88 | – |
| NC[C@H]1CC[C@H](C(=O)N[C@@H](Cc2cccc(S(F)(F)(F)(F)F)c2)C(=O)NCCCC[C@H](NC(=O)N[C@@H](CCC(=O)O)C(=O)O)C(=O)O)CC1 [Example 16-A, N^6—{N-[(1r,4S)-4-(aminomethyl)cyclohexane-1-carbonyl]-3-(pentafluoro-lambda^6-sulfanyl)-L-phenylalanyl}-N^2-{[(1S)-1,3-dicarboxypropyl]carbamoyl}-L-lysine] | 79 | 90 | – |
| O=C(O)CC[C@H](NC(=O)N[C@@H](CCCCNC(=O)[C@@H](Cc1ccc2c(c1)CCCO2)NC(=O)[C@H]1CC[C@H](CNC(=O)CN2CCN(CC(=O)O)CCN(CC(=O)O)CCN(CC(=O)O)CC2)CC1)C(=O)O)C(=O)O [Example 38-B, N^6-{3-(3,4-dihydro-2H-1-benzopyran-6-yl)-N-[(1r,4S)-4-({2-[4,7,10-tris(carboxymethyl)-1,4,7,10-tetraazacyclododecan-1-yl]acetamido}methyl)cyclohexane-1-carbonyl]-D-alanyl}-N^2-{[(1S)-1,3-dicarboxypropyl]carbamoyl}-L-lysine] | 76 | 34 | – |
| O=C(O)CC[C@H](NC(=O)N[C@@H](CCCCNC(=O)[C@H](Cc1ccc2ccccc2c1)NC(=O)c1cccc(CNC(=O)CN2CCN(CC(=O)O)CCN(CC(=O)O)CCN(CC(=O)O)CC2)c1)C(=O)O)C(=O)O [Example 27-B, (3S,10S,14S)-3-[(naphthalen-2-yl)methyl]-1,4,12-trioxo-1-[3-({2-[4,7,10-tris(carboxymethyl)-1,4,7,10-tetraazacyclododecan-1-yl]acetamido}methyl)phenyl]-2,5,11,13-tetraazahexadecane-10,14,16-tricarboxylic acid] | 54 | 6 | – |
| NC[C@H]1CC[C@H](CNC(=O)N[C@@H](Cc2ccc3ccccc3c2)C(=O)NCCCC[C@H](NC(=O)N[C@@H](CCC(=O)O)C(=O)O)C(=O)O)CC1 [Example 29-A, (5S,12S,16S)-1-[(1r,4S)-4-(aminomethyl)cyclohexyl]-5-[(naphthalen-2-yl)methyl]-3,6,14-trioxo-2,4,7,13,15-pentaazaoctadecane-12,16,18-tricarboxylic acid] | 113 | 92 | – |
| O=C(O)CC[C@H](NC(=O)N[C@@H](CCCCNC(=O)[C@H](Cc1ccc2ccccc2c1)NC(=O)Cn1ccc(-c2ccc(NC(=O)CN3CCN(CC(=O)O)CCN(CC(=O)O)CCN(CC(=O)O)CC3)cc2)n1)C(=O)O)C(=O)O [Example 28-B, (4S,11S,15S)-4-[(naphthalen-2-yl)methyl]-2,5,13-trioxo-1-[3-(4-{2-[4,7,10-tris(carboxymethyl)-1,4,7,10-tetraazacyclododecan-1-yl]acetamido}phenyl)-1H-pyrazol-1-yl]-3,6,12,14-tetraazaheptadecane-11,15,17-tricarboxylic acid] | 33 | 90 | – |
